Laboratory results as given in ChEMBL document CHEMBL3124830, “Hepatitis C virus translation inhibitors targeting the internal ribosomal entry site” (J Med Chem, 2014).

Experiments:
[1] = test system: Internal ribosome entry site (IRES); assay: Inhibition of Hepatitis C virus IRES RNA-driven translation; conditions: Hepacivirus hominis
Hepatitis C virus [2] = assay: Antiviral activity against Hepatitis C virus infected in Huh-7 cells assessed as inhibition of HCV replicon by replicon assay; type: functional, organism-based, Hepacivirus hominis
[3] = Binding affinity to Hepatitis C virus genotype 1b IRES RNA subdomain 2a assessed as conformational change by cyanine dye-based FRET assay; design: species or system Hepatitis C virus subtype 1b
Hepatitis C virus [4] = assay: Antiviral activity against Hepatitis C virus infected in Huh-7 cells assessed as inhibition of HCV replicon at 10 uM by replicon assay; type: functional, Hepacivirus hominis
[5] = test system: Internal ribosome entry site (IRES); assay: Binding affinity to Hepatitis C virus IRES RNA subdomain 2a by mass spectrometry assay; design: species or system Hepacivirus hominis

Structure (SMILES)	IC50 [1] [µM]	EC50 (Hepatitis C virus [2]) [µM]	EC50 [3] [µM]	inhibition at 10 µM (Hepatitis C virus [4]) [%]	Kd [5] [µM]
CC(=O)c1ccc(C(=O)N[C@@H](CCCCN)C(=O)N2C[C@H](N)C[C@H](N)C2)cc1			6.3	75	
Cc1cc(C)nc(/N=C(\N)NCCc2ccccc2)n1	9.6				

Now from value to molecule, other results behind:

IC50 [1] [µM]	EC50 (Hepatitis C virus [2]) [µM]	EC50 [3] [µM]	Structure (SMILES)	inhibition at 10 µM (Hepatitis C virus [4]) [%]	Kd [5] [µM]
0.08			Cc1cc2nc3ccc(N(C)C)cc3nc2cc1N		
	4	0.6	CN(C)CC1COc2ccc3nc4n(c3c2C1)CC(CN(C)C)CN4 (stereo unspecified)		
	2.8	3.4	CN(C)CCCn1c(N)nc2ccc3c(c21)CC(CN(C)C)CO3 (stereo unspecified)		0.86
		50	CN(C)CCCn1c(N)nc2ccccc21		100
